Among the data in US9315494B2, “Alkyl-amide-substituted pyridyl compounds useful as modulators of IL-12, IL-23 and/or IFNα responses” (Bristol-Myers Squibb Company, priority 2012, dated 2016) are IC50 values, retold here.

Assay [1] has as its system IL-23-stimulated STAT-dependent luciferase reporter in Kit225 T cells. The experiment in a line: Kit225 T cell assay, IL-23 stimulated STAT-dependent luciferase reporter. Type of assay: cell-based, human. Put shortly:
(§1)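 Kit225 T cells carrying a stably integrated STAT-luciferase reporter, in RPMI with 10% heat-inactivated FBS, were stimulated with 20 ng/mL IL-23 or 200 U/mL IFNα for 5-6 h. Readout was luminescence from the luciferase reporter.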
A general note: Reporter assays use an easily measured gene product as a stand-in for the process of interest.

Assay [2] deals with IFNα-stimulated STAT-dependent luciferase reporter in Kit225 T cells. The experiment in a line: Kit225 T cell assay, IFNα stimulated STAT-dependent luciferase reporter. Type of assay: cell-based, human. The method in brief: as §1
Where [3] appears, read: Kit225 T cells, 20 ng/mL human recombinant IL-23, 5-6 hours, luciferase, read-out: IL23 (Kit225 T Cell Inhibition Data).
[4] abbreviates: Kit225 T cells, 200 U/mL human recombinant IFNα, 5-6 hours, luciferase, read-out: IFNα (Kit225 T Cell Inhibition Data).

The structures appear in SMILES notation. Read-outs that look alike come from different tables or passages of the source.

With `CNC(=O)c1cnc(Nc2cc(C(C)=O)ccn2)cc1Nc1ccccc1S(C)(=O)=O` [Example 26], the IC50 in assay [1] (setting [3]) stood at 1060 nM; in assay [2] (setting [4]), 670 nM.
For the molecule `CNC(=O)c1cnc(Nc2cccc(-c3ccccc3)n2)cc1Nc1ccc(F)cc1OC` [Example 150], the IC50 in assay [1] (setting [3]) is 2700 nM; in assay [2] (setting [4]) it was 1520 nM.
For `CCc1ccc(Nc2cc(Nc3ccc(N4CCOCC4)cn3)ncc2C(=O)NC)cc1` [Example 213], in that order: 1870 nM and 1310 nM.
As for `CNC(=O)c1cnc(Nc2ccc(F)cn2)cc1Nc1ccc(C(=O)N2CCCC2)cc1OC` [Example 248], the IC50 in assay [1] (setting [3]) turned out to be 504 nM; in assay [2] (setting [4]) it was 250 nM.
For `CNC(=O)c1cnc(Nc2ccccn2)cc1Nc1cc(F)cc(F)c1OC` [Example 131], in that order: 183 nM and 60 nM.
Consider `CNC(=O)c1cnc(Nc2ccc(F)cn2)cc1Nc1cccc(F)c1C(N)=O` [Example 175], for which the IC50 came out at 434 nM in assay [1] (setting [3]) and 500 nM in assay [2] (setting [4]).
As to `CCN(CC)C(=O)c1ccc(Nc2cc(Nc3ccc(F)cn3)ncc2C(=O)NC)cc1` [Example 246], the IC50 worked out at 2380 nM in assay [1] (setting [3]) and 1650 nM in assay [2] (setting [4]).
With `CNC(=O)c1cnc(Nc2cccc(C(F)(F)F)n2)cc1Nc1ccc(F)cc1OC` [Example 156], the IC50 is 1650 nM in assay [1] (setting [3]) and 720 nM in assay [2] (setting [4]).
As to `CNC(=O)c1cnc(Nc2ccn(C(C)C)n2)cc1Nc1cc(F)cc(F)c1OC` [Example 408], the IC50 in assay [1] (setting [3]) amounted to 680 nM; in assay [2] (setting [4]), 430 nM.
With `CNC(=O)c1cnc(Nc2cnccn2)cc1Nc1ccccc1S(C)(=O)=O` [Example 38], the IC50 came to 550 nM in assay [1] (setting [3]) and 370 nM in assay [2] (setting [4]).
Take `CNC(=O)c1cnc(Nc2cc(C)c(F)cn2)cc1Nc1ccccc1S(C)(=O)=O` [Example 432]: the IC50 was 30 nM in assay [1] (setting [3]) and 20 nM in assay [2] (setting [4]).
The like results for `CNC(=O)c1cnc(Nc2cc(C)c(F)cn2)cc1Nc1cccc(C(=O)NCc2c[nH]c3ccccc23)c1OC` [Example 353] were, in that order, 250 nM and 160 nM.
Take `CNC(=O)c1cnc(Nc2ccc(F)cn2)cc1Nc1cccc(C)c1` [Example 197]: the IC50 was found to be 11900 nM in assay [1] (setting [3]) and 5830 nM in assay [2] (setting [4]).
The like results for `CNC(=O)c1cnc(Nc2cc(C#N)ccn2)cc1Nc1cccc(F)c1OC` [Example 173] were, in that order, 81.9 nM and 50 nM.
With `CCc1cc(C#N)ccc1Nc1cc(Nc2cc(C)nc(C)n2)ncc1C(=O)NC` [Example 401], the IC50 in assay [1] (setting [3]) is 480 nM; in assay [2] (setting [4]), 440 nM.
Regarding `CNC(=O)c1cnc(Nc2ccn(C)n2)cc1Nc1cc(F)cc(F)c1OC` [Example 407], the IC50 in assay [1] (setting [3]) and in assay [2] (setting [4]) was 90 nM throughout.
Regarding `CNC(=O)c1cnc(Nc2cc(C)nc(C)n2)cc1Nc1cccc(-c2ccnn2C)c1OC` [Example 394], the IC50 turned out to be 80 nM in assay [1] (setting [3]) and 30 nM in assay [2] (setting [4]).
On to `CNC(=O)c1cnc(Nc2ccc(C(=O)N3CCOCC3)cn2)cc1Nc1ccc(Cl)cc1OC` [Example 263], for which the figures for the IC50 in assay [1] (setting [3]) and in assay [2] (setting [4]) were 5060 nM and 3600 nM, respectively.
With `CNC(=O)c1cnc(Nc2cccc(C#N)n2)cc1Nc1ccccc1S(C)(=O)=O` [Example 27], the IC50 in assay [1] (setting [3]) was found to be 376 nM; in assay [2] (setting [4]), 180 nM.
Regarding `CNC(=O)c1cnc(Nc2ccc(F)cn2)cc1Nc1cc(F)ccc1F` [Example 64], the IC50 came to 5950 nM in assay [1] (setting [3]) and 9030 nM in assay [2] (setting [4]).
Consider `CNC(=O)c1ccnc(Nc2cc(Nc3cc(F)cc(F)c3OC)c(C(=O)NC)cn2)c1` [Example 273], for which the IC50 in assay [1] (setting [3]) came out at 223 nM; in assay [2] (setting [4]) it was 160 nM.
With `CCOc1ccc(OCC)c(Nc2cc(Nc3ccc(N4CCOCC4)cn3)ncc2C(=O)NC)c1` [Example 229], the IC50 in assay [1] (setting [3]) came out at 310 nM; in assay [2] (setting [4]), 260 nM.
On to `CNC(=O)c1cnc(Nc2cc(NCc3ccccc3)ncn2)cc1Nc1ccccc1S(C)(=O)=O` [Example 424], for which the IC50 in assay [1] (setting [3]) was 490 nM; in assay [2] (setting [4]), 460 nM.
Take `CNC(=O)c1cnc(Nc2ccc(F)cn2)cc1Nc1cccc(-c2ncn(C)n2)c1OC` [Example 373]: the IC50 in assay [1] (setting [3]) came to 6.22 nM; in assay [2] (setting [4]), 8.34 nM.
For the molecule `CNC(=O)c1cnc(Nc2ccc(Cl)cn2)cc1Nc1ccccc1S(C)(=O)=O` [Example 17], the IC50 stood at 104 nM in assay [1] (setting [3]) and 100 nM in assay [2] (setting [4]).
On to `CNC(=O)c1cnc(Nc2ccc(F)cn2)cc1Nc1cccc2[nH]ccc12` [Example 212], for which the IC50 is 4170 nM in assay [1] (setting [3]) and 2030 nM in assay [2] (setting [4]).
In the case of `CNC(=O)c1cnc(Nc2ccc(N3CCOC3=O)cn2)cc1Nc1ccc(Cl)cc1OC` [Example 105], the IC50 in assay [1] (setting [3]) was 386 nM; in assay [2] (setting [4]), 190 nM.
The like results for `CNC(=O)c1cnc(Nc2cc(COC)nc(C)n2)cc1Nc1ccccc1S(C)(=O)=O` [Example 418] were, in that order, 350 nM and 210 nM.
On to `CNC(=O)c1cnc(Nc2cc(C)c(F)cn2)cc1Nc1cccc(C(N)=O)c1OC` [Example 319], for which the IC50 is 90 nM in assay [1] (setting [3]) and 10 nM in assay [2] (setting [4]).
Take `CNC(=O)c1cnc(Nc2ccc(F)cn2)cc1Nc1ccc(OC(F)(F)F)cc1C(N)=O` [Example 252]: the IC50 in assay [1] (setting [3]) was 1290 nM; in assay [2] (setting [4]) it was 430 nM.
For the molecule `CNC(=O)c1cnc(Nc2ccc(F)cn2)cc1Nc1ccc(OC)cc1OC` [Example 192], the results for the IC50 in assay [1] (setting [3]) and in assay [2] (setting [4]) were 565 nM and 540 nM, respectively.
Take `CNC(=O)c1cnc(Nc2ccc(F)cn2)cc1Nc1ccccc1` [Example 184]: the IC50 in assay [1] (Homo sapiens, KIT225, read-out: IL23 (Kit225 T Cell Inhibition Data)) is 7980 nM; in assay [2] (Homo sapiens, KIT225, read-out: IFNα (Kit225 T Cell Inhibition Data)) it was 4110 nM.
With `CNC(=O)c1cnc(Nc2ccc(F)cn2)cc1Nc1ccccc1O` [Example 208], the IC50 was 1850 nM in assay [1] (setting [3]) and 2410 nM in assay [2] (setting [4]).
For the molecule `CNC(=O)c1cnc(Nc2cccc(F)n2)cc1Nc1ccccc1S(C)(=O)=O` [Example 20], the IC50 turned out to be 50.7 nM in assay [1] (setting [3]) and 40 nM in assay [2] (setting [4]).
Regarding `CNC(=O)c1cnc(Nc2ccc(N3CCOCC3)cn2)cc1Nc1ccccc1S(C)(=O)=O` [Example 9], the IC50 in assay [1] (setting [3]) was determined as 97.8 nM; in assay [2] (setting [4]) it was 40 nM.
On to `CNC(=O)c1cnc(Nc2ccccn2)cc1Nc1ccccc1S(C)(=O)=O` [Example 3], for which the IC50 in assay [1] (setting [3]) stood at 61.4 nM; in assay [2] (setting [4]) it was 70 nM.
For `CNC(=O)c1cnc(Nc2ccc(OC)cn2)cc1Nc1ccccc1S(C)(=O)=O` [Example 434], the IC50 in assay [1] (setting [3]) came out at 100 nM; in assay [2] (setting [4]), 50 nM.
As to `CNC(=O)c1cnc(Nc2ccc(C)cn2)cc1Nc1ccc(F)cc1OC` [Example 159], the IC50 in assay [1] (setting [3]) amounted to 1150 nM; in assay [2] (setting [4]), 1400 nM.
Regarding `CNC(=O)c1cnc(Nc2ccc(F)cn2)cc1Nc1ccc(C(=O)N2CCCCC2)cc1C` [Example 235], the IC50 in assay [1] (setting [3]) came out at 1420 nM; in assay [2] (setting [4]), 700 nM.
On to `CNC(=O)c1cnc(Nc2cc(C)ccn2)cc1Nc1ccc(F)c(F)c1OC` [Example 100], for which the results for the IC50 in assay [1] (setting [3]) and in assay [2] (setting [4]) were 158 nM and 120 nM, respectively.
For `CNC(=O)c1cnc(Nc2ccc(F)cn2)cc1Nc1ccc(C(=O)N2CCCCC2)cc1` [Example 244], the IC50 amounted to 1160 nM in assay [1] (setting [3]) and 1260 nM in assay [2] (setting [4]).
Turning to `CNC(=O)c1cnc(Nc2cc(C)c(F)cn2)cc1Nc1cccc(-c2ncn(C)n2)c1OC(F)F` [Example 388], the IC50 came out at 50 nM in assay [1] (setting [3]) and 20 nM in assay [2] (setting [4]).
Take `CNC(=O)c1cnc(Nc2ccc(N3CCOCC3)cn2)cc1Nc1ccc(F)c(F)c1OC` [Example 101]: the IC50 in assay [1] (setting [3]) amounted to 200 nM; in assay [2] (setting [4]), 80 nM.
For the molecule `CNC(=O)c1cnc(Nc2ccc(F)cn2)cc1Nc1ccccc1N` [Example 231], the values for the IC50 in assay [1] (setting [3]) and in assay [2] (setting [4]) were 9180 nM and 3120 nM, respectively.
Take `CNC(=O)c1cnc(Nc2cc(F)ccn2)cc1Nc1ccc(Cl)cc1OC` [Example 115]: the IC50 was 632 nM in assay [1] (setting [3]) and 440 nM in assay [2] (setting [4]).
The like results for `CNC(=O)c1cnc(Nc2cc(C)ccn2)cc1Nc1ccccc1C(N)=O` [Example 78] were, in that order, 388 nM and 120 nM.
Take `CNC(=O)c1cnc(Nc2cc(Cl)ccn2)cc1Nc1ccc(F)cc1OC` [Example 153]: the results for the IC50 in assay [1] (setting [3]) and in assay [2] (setting [4]) were 1330 nM and 970 nM, respectively.
`CNC(=O)c1cnc(Nc2ccc(F)cn2)cc1Nc1ccc(C(N)=O)cc1OC` [Example 233]: the IC50 was 1370 nM in assay [1] (setting [3]) and 870 nM in assay [2] (setting [4]).
For `CNC(=O)c1cnc(Nc2cc(C)c(F)cn2)cc1Nc1ccc(C(=O)N(C)C)cc1S(C)(=O)=O` [Example 412], in that order: 450 nM and 240 nM.
Take `CNC(=O)c1cnc(Nc2cccc(OC)n2)cc1Nc1ccc(Cl)cc1OC` [Example 108]: the IC50 in assay [1] (setting [3]) amounted to 369 nM; in assay [2] (setting [4]), 230 nM.
`CNC(=O)c1cnc(Nc2cc(C)c(F)cn2)cc1Nc1cccc(C(=O)NCC(C)C)c1OC` [Example 350]: the IC50 in assay [1] (setting [3]) and in assay [2] (setting [4]) was 80 nM each time.
Take `[2H]C([2H])([2H])NC(=O)c1cnc(Nc2cc(C)nc(C)n2)cc1Nc1cccc(-c2csc(C)n2)c1OC` [Example 404, 6-((2,6-dimethylpyrimidin-4-yl)amino)-4-((2-methoxy-3-(2-methylthiazol-4-yl)phenyl)amino)-N-trideuteromethylnicotinamide]: the IC50 in assay [1] (setting [3]) amounted to 4.4 nM; in assay [2] (setting [4]), 8.63 nM.
Regarding `CNC(=O)c1cnc(Nc2ccc(-n3ccccc3=O)cn2)cc1Nc1ccc(Cl)cc1OC` [Example 98], the values for the IC50 in assay [1] (setting [3]) and in assay [2] (setting [4]) were 480 nM and 280 nM, respectively.
As to `CNC(=O)c1cnc(Nc2ccc(F)cn2)cc1Nc1ccccc1SC` [Example 65], the IC50 was 481 nM in assay [1] (setting [3]) and 370 nM in assay [2] (setting [4]).
Take `CNC(=O)c1cnc(Nc2cc(C)nc(C)n2)cc1Nc1cccc(-c2nnc(C)o2)c1OC` [Example 361]: the IC50 in assay [1] (setting [3]) stood at 60 nM; in assay [2] (setting [4]) it was 20 nM.
